Test results from patent publication US7396837B2, “Antitumoral analogs of lamellarins” (Pharma Mar, S.A.U., priority 2002, dated 2008).
Like-named read-outs stand apart in the source and are kept apart here.

How the values were obtained:
Format in all cases: cell-based
K-562 = assay: SRB colorimetric cell growth inhibition assay, K-562; details: Homo sapiens, K562, K-562; for GI50: GI=growth inhibition, read-out: GI50 K-562; for CC50: read-out: LC50 K-562; for IC (TGI): read-out: TGI K-562
How it was run: (§1)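 Tested samples remained on human cancer cell cultures throughout the incubation; viable biomass was then stained with SRB and read colorimetrically.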

A-549 = assay: SRB colorimetric cell growth inhibition assay, A-549; details: Homo sapiens, A549, A-549; for GI50: GI=growth inhibition, read-out: GI50 A-549; for CC50: read-out: LC50 A-549; for IC (TGI): read-out: TGI A-549
How it was run: as §1

SK-MEL-28 = assay: SRB colorimetric cell growth inhibition assay, SK-MEL-28; details: Homo sapiens, SK-MEL-28, MEL-28; for GI50: GI=growth inhibition, read-out: GI50 MEL-28; for CC50: LC=cell killing (cytotoxic effect), read-out: LC50 MEL-28; for IC (TGI): TGI=total growth inhibition (cytostatic effect), read-out: TGI MEL-28
How it was run: as §1

HT-29 = assay: SRB colorimetric cell growth inhibition assay, HT-29; details: Homo sapiens, HT-29, HT-29; for GI50: GI=growth inhibition, read-out: GI50 HT-29; for CC50: read-out: LC50 HT-29; for IC (TGI): read-out: TGI HT-29
How it was run: as §1

LoVo = assay: SRB colorimetric cell growth inhibition assay, LoVo; details: Homo sapiens, LoVo; for GI50: GI=growth inhibition, read-out: GI50 LOVO; for CC50: read-out: LC50 LOVO; for IC (TGI): read-out: TGI LOVO
How it was run: as §1

LoVo-Dox = assay: SRB colorimetric cell growth inhibition assay, LoVo-Dox (MDR); details: Homo sapiens, LOVO-DOX; for GI50: GI=growth inhibition, read-out: GI50 LOVO-DOX; for CC50: read-out: LC50 LOVO-DOX; for IC (TGI): read-out: TGI LOVO-DOX
How it was run: as §1

DU-145 = assay: SRB colorimetric cell growth inhibition assay, DU-145; details: Homo sapiens, DU-145, DU-145; for GI50: GI=growth inhibition, read-out: GI50 DU-145; for CC50: LC=cell killing (cytotoxic effect), read-out: LC50 DU-145; for IC (TGI): TGI=total growth inhibition (cytostatic effect), read-out: TGI DU-145
How it was run: as §1

LNCaP = assay: SRB colorimetric cell growth inhibition assay, LNCaP; details: Homo sapiens, LNCaP, LN-caP; for GI50: GI=growth inhibition, read-out: GI50 LN-caP; for CC50: LC=cell killing (cytotoxic effect), read-out: LC50 LN-caP; for IC (TGI): TGI=total growth inhibition (cytostatic effect), read-out: TGI LN-caP
How it was run: as §1

SK-BR-3 = assay: SRB colorimetric cell growth inhibition assay, SK-BR-3; details: Homo sapiens, SK-BR-3, SK-BR-3; for GI50: GI=growth inhibition, read-out: GI50 SK-BR-3; for CC50: LC=cell killing (cytotoxic effect), read-out: LC50 SK-BR-3; for IC (TGI): TGI=total growth inhibition (cytostatic effect), read-out: TGI SK-BR-3
How it was run: as §1

IGROV = assay: SRB colorimetric cell growth inhibition assay, IGROV; details: Homo sapiens, IGROV; for GI50: GI=growth inhibition, read-out: GI50 IGROV; for CC50: LC=cell killing (cytotoxic effect), read-out: LC50 IGROV; for IC (TGI): TGI=total growth inhibition (cytostatic effect), read-out: TGI IGROV
How it was run: as §1

IGROV-ET = assay: SRB colorimetric cell growth inhibition assay, IGROV-ET (ET-743 resistant); details: Homo sapiens, IGROV-ET; for GI50: GI=growth inhibition, read-out: GI50 IGROV-ET; for CC50: LC=cell killing (cytotoxic effect), read-out: LC50 IGROV-ET; for IC (TGI): TGI=total growth inhibition (cytostatic effect), read-out: TGI IGROV-ET
How it was run: as §1

PANC-1 = assay: SRB colorimetric cell growth inhibition assay, PANC-1; details: Homo sapiens, PANC-1, PANC-1; for GI50: GI=growth inhibition, read-out: GI50 PANC-1; for CC50: read-out: LC50 PANC-1; for IC (TGI): read-out: TGI PANC-1
How it was run: as §1

SKOV-3 = assay: SRB colorimetric cell growth inhibition assay, SKOV-3; details: Homo sapiens; for GI50: SK-OV-3, SKOV-3, GI=growth inhibition, read-out: GI50 SKOV-3; for CC50 / IC (TGI): SK-OV-3, SKOV-3; for CC50: LC=cell killing (cytotoxic effect), read-out: LC50 SKOV-3; for IC (TGI): TGI=total growth inhibition (cytostatic effect), read-out: TGI SKOV-3
How it was run: (§2)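 Growth and viability quantified by sulforhodamine B staining in 96-well microplates. Triplicate wells give mean ± SD; derived endpoints are GI, TGI (cytostatic) and LC (cytotoxic).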

[1] = SRB colorimetric cell growth inhibition assay, H-MEC-1; details: human, H-MEC-1 cells, H-MEC-1; LC=cell killing (cytotoxic effect); read-out: LC50 H-MEC-1
How it was run: as §2

H-MEC-1 = assay: as above; details: Homo sapiens, HMEC-1, H-MEC-1; for GI50: GI=growth inhibition; for IC (TGI): TGI=total growth inhibition (cytostatic effect), read-out: TGI H-MEC-1
How it was run: as §2

[2] = LC=cell killing (cytotoxic effect)
[3] = TGI=total growth inhibition (cytostatic effect)
[4] = cell killing (cytotoxic effect)
[5] = total growth inhibition (cytostatic effect)

## COc1cc2c(cc1OC)-c1c(-c3ccc(OS(C)(=O)=O)c(OC)c3)c3c4cc(OC)c(OS(C)(=O)=O)cc4oc(=O)c3n1CC2 [Compound 92]
K-562
  GI50: 2.23 µM
K-562; [2]
  CC50: 14.9 µM
K-562; [3]
  IC (TGI): 13.8 µM
A-549
  GI50: 14.9 µM
A-549; [2]
  CC50: 14.9 µM
A-549; [3]
  IC (TGI): 14.9 µM
SK-MEL-28
  GI50: 4.75 µM
  CC50: 14.9 µM
  IC (TGI): 10.1 µM
HT-29
  GI50: 14.9 µM
HT-29; [2]
  CC50: 14.9 µM
HT-29; [3]
  IC (TGI): 14.9 µM
LoVo
  GI50: 7.52 µM
LoVo; [2]
  CC50: 14.9 µM
LoVo; [3]
  IC (TGI): 14.9 µM
LoVo-Dox
  GI50: 2.14 µM
LoVo-Dox; [2]
  CC50: 14.9 µM
LoVo-Dox; [3]
  IC (TGI): 5.96 µM
DU-145
  GI50: 14.9 µM
  CC50: 14.9 µM
  IC (TGI): 14.9 µM
LNCaP
  GI50: 0.167 µM
  CC50: 5.09 µM
  IC (TGI): 0.71 µM
SK-BR-3
  GI50: 4.35 µM
  CC50: 14.9 µM
  IC (TGI): 11.6 µM
IGROV
  GI50: 3.13 µM
  CC50: 14.1 µM
  IC (TGI): 6.64 µM
IGROV-ET
  GI50: 6.85 µM
  CC50: 14.9 µM
  IC (TGI): 14.9 µM
PANC-1
  GI50: 5.42 µM
PANC-1; [2]
  CC50: 14.9 µM
PANC-1; [3]
  IC (TGI): 14.9 µM
SKOV-3
  GI50: 7.61 µM
  CC50: 14.9 µM
  IC (TGI): 14.9 µM
[1]
  CC50: 14.9 µM
H-MEC-1
  GI50: 14.2 µM
  IC (TGI): 14.9 µM

## COc1cc2c(cc1OC)-c1c(-c3ccc(OC(=O)CCc4ccccc4)c(OC)c3)c3c4cc(OC)c(OC(=O)CCc5ccccc5)cc4oc(=O)c3n1CC2 [Compound 93]
K-562
  GI50: 1.62 µM
K-562; [4]
  CC50: 4.36 µM
K-562; [5]
  IC (TGI): 2.65 µM
A-549
  GI50: 8.64 µM
A-549; [4]
  CC50: 12.8 µM
A-549; [5]
  IC (TGI): 12.8 µM
SK-MEL-28
  GI50: 4.57 µM
  CC50: 12.8 µM
  IC (TGI): 12.8 µM
HT-29
  GI50: 12.8 µM
HT-29; [4]
  CC50: 12.8 µM
HT-29; [5]
  IC (TGI): 12.8 µM
LoVo
  GI50: 12.8 µM
LoVo; [4]
  CC50: 12.8 µM
LoVo; [5]
  IC (TGI): 12.8 µM
LoVo-Dox
  GI50: 3.39 µM
LoVo-Dox; [4]
  CC50: 12.8 µM
LoVo-Dox; [5]
  IC (TGI): 11.7 µM
DU-145
  GI50: 12.8 µM
  CC50: 12.8 µM
  IC (TGI): 12.8 µM
LNCaP
  GI50: 0.408 µM
  CC50: 7.08 µM
  IC (TGI): 1.27 µM
SK-BR-3
  GI50: 4.95 µM
  CC50: 12.8 µM
  IC (TGI): 12.8 µM
IGROV
  GI50: 3.37 µM
  CC50: 12.8 µM
  IC (TGI): 7.08 µM
IGROV-ET
  GI50: 11.7 µM
  CC50: 12.8 µM
  IC (TGI): 12.8 µM
PANC-1
  GI50: 12.8 µM
PANC-1; [4]
  CC50: 12.8 µM
PANC-1; [5]
  IC (TGI): 12.8 µM
SKOV-3
  GI50: 6.26 µM
  CC50: 12.8 µM
  IC (TGI): 12.8 µM
[1]
  CC50: 12.8 µM
H-MEC-1
  GI50: 12.8 µM
  IC (TGI): 12.8 µM
